# Measured values from ChEMBL document CHEMBL4828765, “Design and Development of a Chemical Probe for Pseudokinase Ca2+/calmodulin-Dependent Ser/Thr Kinase” (J Med Chem, 2021).
# pIC50, pKd, pKi: −log10 of the molar value. Active and inactive are the calls of the source. The rule behind the calls is not given here.
# What was measured:
# [1] = biological target: T1, Casein kinase I isoform epsilon (Homo sapiens, UniProt P49674); assay: Binding affinity to CSNK1E (unknown origin) assessed as change in melting temperature by SYPRO orange dye based DSF assay
# Target sequence in this assay (P49674 whole entry, looked up, canonical isoform): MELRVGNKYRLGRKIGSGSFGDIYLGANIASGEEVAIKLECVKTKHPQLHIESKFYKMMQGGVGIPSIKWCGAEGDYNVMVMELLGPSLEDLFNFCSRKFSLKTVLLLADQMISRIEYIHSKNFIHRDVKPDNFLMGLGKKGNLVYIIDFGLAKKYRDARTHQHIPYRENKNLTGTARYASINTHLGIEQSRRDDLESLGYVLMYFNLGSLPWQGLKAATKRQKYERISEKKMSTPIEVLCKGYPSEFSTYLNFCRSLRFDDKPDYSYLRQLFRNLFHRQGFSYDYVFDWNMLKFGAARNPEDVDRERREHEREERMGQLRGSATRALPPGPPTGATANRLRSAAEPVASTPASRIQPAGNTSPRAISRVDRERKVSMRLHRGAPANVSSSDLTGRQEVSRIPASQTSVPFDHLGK
# [2] = biological target: T2, Tyrosine-protein kinase Mer (Homo sapiens) (UniProt Q12866); assay: Binding affinity to MERTK (571 to 864 residue) (unknown origin) expressed in Escherichia coli Rosetta cells assessed as change in melting temperature by SYPRO orange dye based DSF assay
# T2 sequence (whole entry): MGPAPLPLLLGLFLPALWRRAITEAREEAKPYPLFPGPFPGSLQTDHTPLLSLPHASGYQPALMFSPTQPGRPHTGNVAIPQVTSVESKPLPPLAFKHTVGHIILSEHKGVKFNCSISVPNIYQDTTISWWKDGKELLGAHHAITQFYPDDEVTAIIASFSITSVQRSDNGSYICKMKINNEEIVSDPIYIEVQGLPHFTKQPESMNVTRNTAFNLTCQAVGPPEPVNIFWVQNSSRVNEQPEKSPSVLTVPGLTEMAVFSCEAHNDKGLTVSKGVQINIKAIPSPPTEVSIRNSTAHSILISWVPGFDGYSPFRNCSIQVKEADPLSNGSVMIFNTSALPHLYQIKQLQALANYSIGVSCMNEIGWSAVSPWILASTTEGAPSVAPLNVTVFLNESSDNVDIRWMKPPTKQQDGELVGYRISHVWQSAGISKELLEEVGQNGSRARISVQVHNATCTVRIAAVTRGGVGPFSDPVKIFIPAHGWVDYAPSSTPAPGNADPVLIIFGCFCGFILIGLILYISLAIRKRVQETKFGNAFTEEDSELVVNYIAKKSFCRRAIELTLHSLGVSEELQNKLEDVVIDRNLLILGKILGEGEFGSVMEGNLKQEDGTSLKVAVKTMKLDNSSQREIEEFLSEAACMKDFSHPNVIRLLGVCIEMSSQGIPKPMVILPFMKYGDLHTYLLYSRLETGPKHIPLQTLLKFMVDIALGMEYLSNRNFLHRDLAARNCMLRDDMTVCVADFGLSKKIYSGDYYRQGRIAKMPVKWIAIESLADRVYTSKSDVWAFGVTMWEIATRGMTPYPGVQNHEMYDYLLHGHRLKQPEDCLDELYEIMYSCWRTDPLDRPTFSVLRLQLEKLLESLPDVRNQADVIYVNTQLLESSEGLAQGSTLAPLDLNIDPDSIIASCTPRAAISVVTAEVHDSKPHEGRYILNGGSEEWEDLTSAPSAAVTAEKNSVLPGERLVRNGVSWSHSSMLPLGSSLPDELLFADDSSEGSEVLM
# [3] = biological target: T3, Tyrosine-protein kinase receptor TYRO3 (Homo sapiens, UniProt Q06418); assay: Inhibition of tracer K5 binding to NanoLuc-fused TYRO3 (unknown origin) expressed in HEK293T cells measured after 2 hrs by NanoBRET assay; format: cell-based
# T3 sequence (Q06418 whole entry): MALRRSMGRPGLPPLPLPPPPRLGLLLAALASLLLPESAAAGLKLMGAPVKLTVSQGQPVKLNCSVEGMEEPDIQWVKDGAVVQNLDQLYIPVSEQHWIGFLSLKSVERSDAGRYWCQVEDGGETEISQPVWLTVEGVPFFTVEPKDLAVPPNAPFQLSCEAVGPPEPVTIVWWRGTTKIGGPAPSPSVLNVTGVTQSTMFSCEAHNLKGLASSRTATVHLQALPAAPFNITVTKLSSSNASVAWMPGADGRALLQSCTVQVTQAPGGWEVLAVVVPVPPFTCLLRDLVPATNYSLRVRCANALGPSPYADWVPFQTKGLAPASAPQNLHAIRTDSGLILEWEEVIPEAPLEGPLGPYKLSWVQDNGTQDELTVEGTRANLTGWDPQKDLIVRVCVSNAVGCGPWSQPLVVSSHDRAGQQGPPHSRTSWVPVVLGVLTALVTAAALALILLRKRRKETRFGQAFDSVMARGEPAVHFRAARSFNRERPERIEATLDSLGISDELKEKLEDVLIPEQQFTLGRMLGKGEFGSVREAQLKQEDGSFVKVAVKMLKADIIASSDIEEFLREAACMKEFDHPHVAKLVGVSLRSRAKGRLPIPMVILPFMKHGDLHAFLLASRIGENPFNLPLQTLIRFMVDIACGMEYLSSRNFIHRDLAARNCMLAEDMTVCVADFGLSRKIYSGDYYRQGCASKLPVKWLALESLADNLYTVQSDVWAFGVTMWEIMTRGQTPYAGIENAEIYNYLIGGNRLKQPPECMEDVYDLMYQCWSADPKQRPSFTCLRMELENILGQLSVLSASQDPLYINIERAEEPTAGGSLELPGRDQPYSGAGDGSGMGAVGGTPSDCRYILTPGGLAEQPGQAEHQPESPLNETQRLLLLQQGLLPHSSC
# [4] = organism: Homo sapiens; assay: Binding affinity to MERTK-AXL mutant (unknown origin) expressed in Escherichia coli Rosetta cells assessed as change in melting temperature by SYPRO orange dye based DSF assay
# [5] = biological target: T4, Tyrosine-protein kinase Mer (Homo sapiens, UniProt Q12866); assay: Inhibition of tracer K5 binding to NanoLuc-fused MERTK (unknown origin) expressed in HEK293T cells measured after 2 hrs by NanoBRET assay; format: cell-based
# T4 sequence (Q12866 whole entry): T2 sequence (whole entry)
# [6] = biological target: T5, Tyrosine-protein kinase receptor UFO (Homo sapiens, UniProt P30530); assay: Inhibition of tracer K5 binding to NanoLuc-fused AXL (unknown origin) expressed in HEK293T cells measured after 2 hrs by NanoBRET assay; format: cell-based
# T5 sequence (P30530 whole entry): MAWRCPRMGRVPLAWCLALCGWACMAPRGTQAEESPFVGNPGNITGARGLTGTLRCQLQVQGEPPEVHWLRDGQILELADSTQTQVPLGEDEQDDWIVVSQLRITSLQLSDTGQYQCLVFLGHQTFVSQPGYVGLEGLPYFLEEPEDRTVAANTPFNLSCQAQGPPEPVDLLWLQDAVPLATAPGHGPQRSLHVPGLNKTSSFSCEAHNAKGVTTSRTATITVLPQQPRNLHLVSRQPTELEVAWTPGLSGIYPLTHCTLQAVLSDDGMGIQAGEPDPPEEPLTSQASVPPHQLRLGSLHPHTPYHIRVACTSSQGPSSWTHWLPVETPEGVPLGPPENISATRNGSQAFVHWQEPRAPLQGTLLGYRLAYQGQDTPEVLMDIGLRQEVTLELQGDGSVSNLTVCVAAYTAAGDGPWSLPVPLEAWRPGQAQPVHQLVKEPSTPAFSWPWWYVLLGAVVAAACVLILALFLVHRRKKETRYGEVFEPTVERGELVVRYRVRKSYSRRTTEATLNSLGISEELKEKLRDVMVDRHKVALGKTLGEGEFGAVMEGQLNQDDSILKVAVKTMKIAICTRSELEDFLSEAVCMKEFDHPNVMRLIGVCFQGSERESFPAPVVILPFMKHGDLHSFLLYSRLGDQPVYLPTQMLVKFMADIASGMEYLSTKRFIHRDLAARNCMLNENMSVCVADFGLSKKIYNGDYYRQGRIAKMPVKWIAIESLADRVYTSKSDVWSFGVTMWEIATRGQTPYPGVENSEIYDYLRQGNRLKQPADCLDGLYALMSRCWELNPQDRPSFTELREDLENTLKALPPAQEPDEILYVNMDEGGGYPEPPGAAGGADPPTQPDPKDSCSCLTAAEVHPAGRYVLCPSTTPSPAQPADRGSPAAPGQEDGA
# [7] = biological target: T6, Tyrosine-protein kinase ABL1 (Homo sapiens, UniProt P00519); assay: Inhibition of tracer K5 binding to NanoLuc-fused ABL1 (unknown origin) expressed in HEK293T cells measured after 2 hrs by NanoBRET assay; format: cell-based
# T6 sequence (P00519 whole entry, the tested form may be a part, canonical isoform): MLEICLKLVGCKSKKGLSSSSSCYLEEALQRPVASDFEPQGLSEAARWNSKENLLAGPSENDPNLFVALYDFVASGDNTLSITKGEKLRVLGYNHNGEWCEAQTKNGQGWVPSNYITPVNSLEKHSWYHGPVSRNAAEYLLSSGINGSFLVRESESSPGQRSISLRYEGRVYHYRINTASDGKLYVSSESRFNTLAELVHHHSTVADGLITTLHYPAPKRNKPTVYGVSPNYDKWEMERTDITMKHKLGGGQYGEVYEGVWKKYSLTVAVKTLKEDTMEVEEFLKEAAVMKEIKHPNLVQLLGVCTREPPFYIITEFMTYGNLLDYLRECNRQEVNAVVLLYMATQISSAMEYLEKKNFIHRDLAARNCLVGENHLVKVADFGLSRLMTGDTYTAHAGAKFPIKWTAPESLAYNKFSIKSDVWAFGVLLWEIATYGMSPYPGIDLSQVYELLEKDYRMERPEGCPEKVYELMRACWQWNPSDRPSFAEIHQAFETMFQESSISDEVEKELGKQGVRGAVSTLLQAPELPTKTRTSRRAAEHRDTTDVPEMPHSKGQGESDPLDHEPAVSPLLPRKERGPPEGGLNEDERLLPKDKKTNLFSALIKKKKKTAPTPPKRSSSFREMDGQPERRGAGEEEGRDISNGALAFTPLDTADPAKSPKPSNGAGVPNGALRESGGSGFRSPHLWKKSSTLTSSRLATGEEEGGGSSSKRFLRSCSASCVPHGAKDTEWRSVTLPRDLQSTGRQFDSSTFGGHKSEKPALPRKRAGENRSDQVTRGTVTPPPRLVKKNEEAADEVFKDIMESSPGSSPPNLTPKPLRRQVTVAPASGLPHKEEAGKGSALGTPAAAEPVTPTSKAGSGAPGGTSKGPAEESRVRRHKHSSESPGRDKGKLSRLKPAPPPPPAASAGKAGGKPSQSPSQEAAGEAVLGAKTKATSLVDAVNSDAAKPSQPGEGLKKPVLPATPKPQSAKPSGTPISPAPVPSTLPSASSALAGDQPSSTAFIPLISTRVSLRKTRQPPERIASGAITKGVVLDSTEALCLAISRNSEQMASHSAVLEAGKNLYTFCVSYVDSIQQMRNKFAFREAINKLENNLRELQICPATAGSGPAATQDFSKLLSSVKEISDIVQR
# [8] = biological target: T1, Casein kinase I isoform epsilon; assay: Inhibition of tracer K5 binding to NanoLuc-fused CSNK1E (unknown origin) expressed in HEK293T cells measured after 2 hrs by NanoBRET assay; format: cell-based
# Target sequence in this assay (P49674 whole entry, canonical isoform): as the sequence (P49674 whole entry, looked up, canonical isoform) above
# [9] = biological target: T6, Tyrosine-protein kinase ABL1
# Description: Binding affinity to non-phosphorylated ABL1 (unknown origin) assessed as change in melting temperature by SYPRO orange dye based DSF assay
# [10] = tested on: P19; assay: Induction of cell death in mouse P19 cell differentiation model at 2 uM preincubated for 4 days followed by cytosine arabinoside addition measured after 6 hrs by immunostaining based microscopic analysis; format: functional; conditions: time 102.0 hrs
# [11] = tested on: P19; assay: Induction of cell death in mouse P19 cell differentiation model at 1 uM preincubated for 4 days followed by cytosine arabinoside addition measured after 6 hrs by immunostaining based microscopic analysis; format: functional; conditions: time 102.0 hrs
# [12] = tested on: P19; assay: Induction of beta3-tubulin abundance in mouse P19 cells at 1 uM preincubated for 4 days followed by cytosine arabinoside addition measured after 6 hrs by immunostaining based microscopic analysis; format: functional, cell-based; conditions: time 4.0 day
# [13] = biological target: T1, Casein kinase I isoform epsilon; assay: Binding affinity to human CSNK1E at 1 uM by KINOMEscan scanMAX assay relative to control
# Target sequence in this assay (P49674 whole entry, looked up, canonical isoform): as above
# [14] = biological target: T2, Tyrosine-protein kinase Mer (Homo sapiens); assay: Binding affinity to human MERTK at 1 uM by KINOMEscan scanMAX assay relative to control
# [15] = biological target: T6, Tyrosine-protein kinase ABL1; assay: Binding affinity to human non-phosphorylated ABL1 at 1 uM by KINOMEscan scanMAX assay relative to control
# [16] = biological target: T7, Ribosomal protein S6 kinase alpha-2 (Homo sapiens, UniProt Q15349); assay: Binding affinity to human N-terminal RSK3 kinase domain 1 at 1 uM by KINOMEscan scanMAX assay relative to control
# T7 sequence (Q15349 whole entry, the tested form may be a part): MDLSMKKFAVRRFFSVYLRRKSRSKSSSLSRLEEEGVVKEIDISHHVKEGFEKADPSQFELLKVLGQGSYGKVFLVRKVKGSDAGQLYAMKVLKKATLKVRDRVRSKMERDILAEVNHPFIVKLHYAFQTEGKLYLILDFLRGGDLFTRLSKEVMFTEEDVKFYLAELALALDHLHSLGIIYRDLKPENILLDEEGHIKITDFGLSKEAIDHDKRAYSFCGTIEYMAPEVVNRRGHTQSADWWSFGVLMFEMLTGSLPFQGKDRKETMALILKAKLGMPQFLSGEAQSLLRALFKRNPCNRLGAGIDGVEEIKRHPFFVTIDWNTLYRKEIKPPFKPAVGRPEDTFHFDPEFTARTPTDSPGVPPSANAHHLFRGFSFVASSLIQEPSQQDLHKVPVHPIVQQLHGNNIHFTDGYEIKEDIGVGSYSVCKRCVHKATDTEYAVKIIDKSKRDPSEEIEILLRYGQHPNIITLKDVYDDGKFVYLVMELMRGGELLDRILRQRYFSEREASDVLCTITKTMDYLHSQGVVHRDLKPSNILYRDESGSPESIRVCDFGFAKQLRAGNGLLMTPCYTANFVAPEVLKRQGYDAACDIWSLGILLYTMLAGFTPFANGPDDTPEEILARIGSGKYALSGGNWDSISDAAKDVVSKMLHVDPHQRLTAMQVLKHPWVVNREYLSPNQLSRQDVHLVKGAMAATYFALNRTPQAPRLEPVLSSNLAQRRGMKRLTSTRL
# [17] = biological target: T8, Mitogen-activated protein kinase kinase kinase 2 (Homo sapiens) (UniProt Q9Y2U5); assay: Binding affinity to human MAP3K2 at 1 uM by KINOMEscan scanMAX assay relative to control
# T8 sequence (whole entry): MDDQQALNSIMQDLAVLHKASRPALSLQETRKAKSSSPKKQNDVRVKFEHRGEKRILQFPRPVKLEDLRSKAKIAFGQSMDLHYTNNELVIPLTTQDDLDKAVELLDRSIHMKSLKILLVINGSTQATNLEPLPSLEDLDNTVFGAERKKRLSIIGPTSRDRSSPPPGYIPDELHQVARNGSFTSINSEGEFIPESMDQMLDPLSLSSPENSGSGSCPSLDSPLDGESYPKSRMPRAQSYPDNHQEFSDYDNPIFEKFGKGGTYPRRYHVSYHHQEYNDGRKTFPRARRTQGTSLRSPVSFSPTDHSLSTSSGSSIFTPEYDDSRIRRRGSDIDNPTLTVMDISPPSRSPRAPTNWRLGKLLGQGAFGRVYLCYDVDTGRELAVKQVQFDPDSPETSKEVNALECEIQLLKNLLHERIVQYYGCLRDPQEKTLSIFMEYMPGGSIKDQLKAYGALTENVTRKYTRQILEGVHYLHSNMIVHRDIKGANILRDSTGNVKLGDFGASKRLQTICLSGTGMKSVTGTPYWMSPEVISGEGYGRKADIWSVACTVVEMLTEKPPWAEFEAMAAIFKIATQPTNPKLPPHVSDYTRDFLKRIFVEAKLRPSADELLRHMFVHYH
# [18] = biological target: Hepatocyte growth factor receptor (Homo sapiens) (UniProt P08581); assay: Binding affinity to human MET at 1 uM by KINOMEscan scanMAX assay relative to control
# Chain of Hepatocyte growth factor receptor (Homo sapiens) (P08581 whole entry): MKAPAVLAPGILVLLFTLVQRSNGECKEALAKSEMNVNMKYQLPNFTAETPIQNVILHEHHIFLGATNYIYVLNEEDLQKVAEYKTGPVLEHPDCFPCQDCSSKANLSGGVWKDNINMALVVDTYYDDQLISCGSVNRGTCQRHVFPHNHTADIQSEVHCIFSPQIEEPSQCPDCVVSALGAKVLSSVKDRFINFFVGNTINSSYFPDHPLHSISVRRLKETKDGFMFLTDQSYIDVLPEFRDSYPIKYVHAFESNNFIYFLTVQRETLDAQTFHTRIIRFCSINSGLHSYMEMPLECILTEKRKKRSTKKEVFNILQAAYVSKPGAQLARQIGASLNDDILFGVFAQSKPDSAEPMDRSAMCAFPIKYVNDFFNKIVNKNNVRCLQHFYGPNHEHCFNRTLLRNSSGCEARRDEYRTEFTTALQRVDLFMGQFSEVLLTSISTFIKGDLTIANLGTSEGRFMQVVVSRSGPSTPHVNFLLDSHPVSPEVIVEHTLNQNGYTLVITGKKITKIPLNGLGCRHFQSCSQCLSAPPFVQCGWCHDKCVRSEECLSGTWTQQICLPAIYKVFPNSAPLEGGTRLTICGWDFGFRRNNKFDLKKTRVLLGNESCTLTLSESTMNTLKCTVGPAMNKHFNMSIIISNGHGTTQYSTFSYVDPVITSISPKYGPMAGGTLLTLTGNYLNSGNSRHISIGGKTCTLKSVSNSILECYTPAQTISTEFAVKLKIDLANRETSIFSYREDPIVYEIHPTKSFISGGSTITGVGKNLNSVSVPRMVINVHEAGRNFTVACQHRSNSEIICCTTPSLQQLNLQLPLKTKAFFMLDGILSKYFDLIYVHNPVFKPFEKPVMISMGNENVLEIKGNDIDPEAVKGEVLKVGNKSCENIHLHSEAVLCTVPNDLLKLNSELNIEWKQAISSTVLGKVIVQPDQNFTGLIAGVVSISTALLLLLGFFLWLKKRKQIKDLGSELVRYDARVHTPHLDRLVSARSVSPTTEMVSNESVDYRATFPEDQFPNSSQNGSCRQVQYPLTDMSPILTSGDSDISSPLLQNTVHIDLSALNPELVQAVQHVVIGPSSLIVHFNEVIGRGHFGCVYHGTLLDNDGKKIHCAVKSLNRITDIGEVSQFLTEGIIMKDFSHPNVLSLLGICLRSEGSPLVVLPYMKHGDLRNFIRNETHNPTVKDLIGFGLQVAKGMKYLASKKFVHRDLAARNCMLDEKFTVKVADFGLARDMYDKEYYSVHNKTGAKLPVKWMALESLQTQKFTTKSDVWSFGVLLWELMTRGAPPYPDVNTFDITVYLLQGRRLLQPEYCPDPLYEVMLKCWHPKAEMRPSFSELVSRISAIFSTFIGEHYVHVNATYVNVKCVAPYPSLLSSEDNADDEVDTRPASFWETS
# [19] = biological target: Tyrosine-protein kinase receptor UFO (Homo sapiens) (UniProt P30530); assay: Binding affinity to human AXL at 1 uM by KINOMEscan scanMAX assay relative to control
# [20] = biological target: T1, Casein kinase I isoform epsilon; assay: Binding affinity to human CSNK1E by KINOMEscan scanMAX assay
# Target sequence in this assay (P49674 whole entry, canonical isoform): as the sequence (P49674 whole entry, looked up, canonical isoform) above
# [21] = biological target: T4, Tyrosine-protein kinase Mer; assay: Binding affinity to human MERTK by KINOMEscan scanMAX assay
# [22] = biological target: T6, Tyrosine-protein kinase ABL1; assay: Binding affinity to human non-phosphorylated ABL1 by KINOMEscan scanMAX assay
# [23] = biological target: T7, Ribosomal protein S6 kinase alpha-2; assay: Binding affinity to human N-terminal RSK3 kinase domain 1 by KINOMEscan scanMAX assay
# [24] = biological target: T9, Mitogen-activated protein kinase kinase kinase 2 (Homo sapiens, UniProt Q9Y2U5); assay: Binding affinity to human MAP3K2 by KINOMEscan scanMAX assay
# T9 sequence (Q9Y2U5 whole entry): T8 sequence (whole entry)
# [25] = biological target: Tyrosine-protein kinase receptor UFO (Homo sapiens) (UniProt P30530); assay: Binding affinity to AXL (unknown origin) assessed as change in melting temperature by SYPRO orange dye based DSF assay
deltaTm [1] [K],deltaTm [2] [K],pIC50 [3],pIC50 [5],pIC50 [6],pIC50 [7],deltaTm [9] [K],Structure (SMILES),deltaTm [4] [K],also measured
3.8,-0.5,5.06,< 5.00,< 5.00,< 5.00,8.4,Cc1cc(Br)c(CNc2ncc(C(=O)NCCCN3CCOC3=O)c(NC3CCCCC3)n2)cc1Br,0.1,pIC50 [8]: 4.66
–,–,< 5.00,< 5.00,< 5.00,< 5.00,–,CCN(Cc1ccc(Cl)cc1)c1ncc(C(=O)NCCCN2CCCC2=O)c(NC2CCCC2)n1,–,Activity [10]: inactive; Activity [11]: inactive; Activity [12]: inactive
5.6,-0.2,6.15,< 5.00,–,< 5.00,8.6,O=C(NCCCN1CCOC1=O)c1cnc(NCc2cc(Cl)ccc2Cl)nc1NC1CCCC1,0.2,Activity [13]: 76%; Activity [14]: 75%; Activity [15]: 73%; Activity [16]: 67%; Activity [17]: 63%; Activity [18]: 63%; Activity [19]: 61%; pKd [20]: 6.11; pKd [21]: 6.24; pKd [22]: 6.13; pKd [23]: 5.89; pKd [24]: 6.16; deltaTm [25]: 0.2 K; pKi [3]: 6.92
